Experimental data from BindingDB's records for doi:10.1016/0960-894X(95)00091-7 (1995).

What was measured:
[1] = Compound was tested for its affinity towards Alpha-2 adrenergic receptor
[2] = Binding affinity towards cloned human 5-hydroxytryptamine 1D receptor beta was determined
[3] = Compound was tested for its ability inhibit forskolin-stimulated activity of adenylate cyclase coupled to human 5-HT 1D-beta receptor in CHO-K1 cells
[4] = as above; remark: listed apart in the source
[5] = Compound was tested for its ability inhibit forskolin-stimulated activity of adenylate cyclase coupled to human 5-hydroxytryptamine 1D receptor beta in CHO-K1 cells; value ranges from 2.8-6.5
[6] = Compound was tested for its ability inhibit forskolin-stimulated activity of adenylate cyclase coupled to human 5-hydroxytryptamine 1D receptor beta in CHO-K1 cells; value ranges from 0.24-0.55
[7] = as above; remark: listed apart in the source

Structure (SMILES): Cc1ccccc1N1CCN(C(=O)COc2ccc3[nH]cc(CCN)c3c2)CC1
- IC50 [1]: > 10000 nM

Structure (SMILES): NCCc1c[nH]c2ccc(OCC(=O)N3CCN(c4ccccc4)CC3)cc12 [2-[3-(2-Amino-ethyl)-1H-indol-5-yloxy]-1-(4-phenyl-piperazin-1-yl)-ethanone]
- Ki [2]: 0.6 nM
- EC50 [3]: 0.45 nM

Structure (SMILES): CCCCCCCCCOc1ccc2[nH]cc(CCN)c2c1 [2-(5-Nonyloxy-1H-indol-3-yl)-ethylamine]
- EC50 [4]: 68 nM

Structure (SMILES): NCCc1c[nH]c2ccc(OCC(=O)N3CCN(c4cccc5ccccc45)CC3)cc12 [2-[3-(2-Amino-ethyl)-1H-indol-5-yloxy]-1-(4-naphthalen-1-yl-piperazin-1-yl)-ethanone]
- EC50 [5]: 2.8 nM
- IC50 [1]: > 1000 nM
- Ki [6]: 0.52 nM

Structure (SMILES): COc1cccc(N2CCN(C(=O)COc3ccc4[nH]cc(CCN)c4c3)CC2)c1 [2-[3-(2-Amino-ethyl)-1H-indol-5-yloxy]-1-[4-(3-methoxy-phenyl)-piperazin-1-yl]-ethanone]
- Ki [2]: 0.4 nM
- EC50 [7]: 0.24 nM
